From ChEMBL document CHEMBL6103654, “Design, Biological Characterization, and Discovery of Capromorelin Derivatives as Oral Growth Hormone Secretagogue Receptor Type 1a Agonist for the Treatment of Growth Hormone Deficiency” (J Med Chem, 2025)

How the values were obtained:
CHO [1] = assay: Agonist activity at human GHSR expressed in CHO cells at maximum concentration incubated for 60 min by FLIPR assay relative to control; format: cell-based
[2] = Agonist activity at human GHSR expressed in CHO cells incubated for 60 min by FLIPR assay; format: cell-based; conditions: 1 h
[3] = Clearance in male Sprague-Dawley rat plasma at 1 mg/kg, iv administered as single dose measured after 4 hrs; format: ADME, organism-based
Rattus norvegicus [4] = assay: Induction of growth hormone level in Juvenile Sprague-Dawley rat blood at 0.1 mg/kg, po administered as single dose measured after 20 mins by ELISA method (reference value: 29.1+/-8.6 ng/mL); format: functional
[5] = Tmax in male Sprague-Dawley rat at 2 mg/kg, po administered as single dose measured after 4 hrs; format: ADME, organism-based; conditions: in vivo
[6] = Oral bioavailability in male Sprague-Dawley rat at 2 mg/kg administered as single dose measured after 4 hrs; format: ADME, organism-based; conditions: in vivo
Rattus norvegicus [7] = assay: Induction of growth hormone level in Juvenile Sprague-Dawley rat blood at 0.1 mg/kg, po administered as single dose measured after 10 mins by ELISA method (reference value: 23.2+/-5.6 ng/mL); format: functional
Rattus norvegicus [8] = assay: Induction of growth hormone level in adult Sprague-Dawley rat blood at 0.5 mg/kg, po administered as single dose measured after 40 mins by ELISA method (reference value: 14.4+/-6.9 ng/mL); format: functional
Rattus norvegicus [9] = assay: Induction of growth hormone level in Juvenile Sprague-Dawley rat blood at 0.1 mg/kg, po administered as single dose measured immediately by ELISA method (reference value: 28.5+/-8.7 ng/mL); format: functional
[10] = target: Growth hormone secretagogue receptor type 1 (Rattus norvegicus, UniProt O08725); assay: Agonist activity at rat GHSR expressed in CHO cells incubated for 60 min by FLIPR assay; format: functional, cell-based
Rattus norvegicus [11] = assay: Induction of growth hormone level in adult Sprague-Dawley rat blood at 0.5 mg/kg, po administered as single dose measured after 10 mins by ELISA method (reference value: 13.7+/-7.2 ng/mL); format: functional
Rattus norvegicus [12] = assay: Induction of growth hormone level in adult Sprague-Dawley rat blood at 0.5 mg/kg, po administered as single dose measured immediately by ELISA method (reference value: 12.6+/-4.4 ng/mL); format: functional
[13] = Elimination half life in male Sprague-Dawley rat at 2 mg/kg, po administered as single dose measured after 4 hrs; format: ADME, organism-based; conditions: in vivo, read-out: beta t1/2 (converted)
[14] = Elimination half life in male Sprague-Dawley rat at 1 mg/kg, iv administered as single dose measured after 4 hrs; format: ADME, organism-based; conditions: in vivo, read-out: beta t1/2 (converted)
[15] = Agonist activity at dog GHSR expressed in CHO cells incubated for 60 min by FLIPR assay; format: cell-based; conditions: 1 h
Rattus norvegicus [16] = assay: Induction of growth hormone level in adult Sprague-Dawley rat blood at 0.5 mg/kg, po administered as single dose measured after 20 mins by ELISA method (reference value: 4.9+/-1.1 ng/mL); format: functional
Rattus norvegicus [17] = assay: Induction of growth hormone level in Juvenile Sprague-Dawley rat blood by measuring AUC(0 to 40 mins) at 0.1 mg/kg, po administered as single dose by ELISA method (reference value: 20.2+/-4.3 ng/mL); format: functional, organism-based; conditions: time 4.0 hrs
[18] = target: Growth hormone secretagogue receptor type 1 (Rattus norvegicus) (UniProt O08725); assay: Agonist activity at rat GHSR expressed in CHO cells at maximum concentration incubated for 60 min by FLIPR assay relative to control; format: functional, cell-based; conditions: filed as agonist
CHO [19] = assay: Agonist activity at dog GHSR expressed in CHO cells at maximum concentration incubated for 60 min by FLIPR assay relative to control; format: cell-based; conditions: Canis lupus familiaris, filed as agonist
CHO [20] = assay: Agonist activity at monkey GHSR expressed in CHO cells at maximum concentration incubated for 60 min by FLIPR assay relative to control; format: cell-based; conditions: Macaca mulatta, filed as agonist
Rattus norvegicus [21] = assay: Induction of growth hormone level in adult Sprague-Dawley rat blood by measuring AUC(0 to 40 mins) at 0.5 mg/kg, po administered as single dose by ELISA method (reference value: 7.0+/-1.7 ng/mL); format: functional, organism-based
[22] = AUC in male Sprague-Dawley rat at 2 mg/kg, po administered as single dose measured after 4 hrs; format: ADME, organism-based; conditions: in vivo
[23] = Volume of distribution in male Sprague-Dawley rat at 1 mg/kg, iv administered as single dose measured after 4 hrs; format: ADME, organism-based; conditions: in vivo
Rattus norvegicus [24] = assay: Induction of growth hormone level in Juvenile Sprague-Dawley rat blood at 0.1 mg/kg, po administered as single dose measured after 1 hr by ELISA method (reference value: 45.2+/-12.5 ng/mL); format: functional
Rattus norvegicus [25] = assay: Induction of growth hormone level in Juvenile Sprague-Dawley rat blood at 0.1 mg/kg, po administered as single dose measured after 40 mins by ELISA method (reference value: 40.1+/-11.0 ng/mL); format: functional
Rattus norvegicus [26] = assay: Induction of growth hormone level in Juvenile Sprague-Dawley rat blood at 0.1 mg/kg, po administered as single dose measured after 4 hrs by ELISA method (reference value: 32.5+/-4.5 ng/mL); format: functional
[27] = Agonist activity at monkey GHSR expressed in CHO cells incubated for 60 min by FLIPR assay; format: cell-based; conditions: Macaca mulatta, 1 h
[28] = Cmax in male Sprague-Dawley rat at 2 mg/kg, po administered as single dose measured after 4 hrs; format: ADME, organism-based; conditions: in vivo
Rattus norvegicus [29] = assay: Induction of growth hormone level in Juvenile Sprague-Dawley rat blood at 0.1 mg/kg, po administered as single dose measured after 2 hrs by ELISA method (reference value: 26.5+/-7.3 ng/mL); format: functional

Chain of Growth hormone secretagogue receptor type 1 (O08725 whole entry): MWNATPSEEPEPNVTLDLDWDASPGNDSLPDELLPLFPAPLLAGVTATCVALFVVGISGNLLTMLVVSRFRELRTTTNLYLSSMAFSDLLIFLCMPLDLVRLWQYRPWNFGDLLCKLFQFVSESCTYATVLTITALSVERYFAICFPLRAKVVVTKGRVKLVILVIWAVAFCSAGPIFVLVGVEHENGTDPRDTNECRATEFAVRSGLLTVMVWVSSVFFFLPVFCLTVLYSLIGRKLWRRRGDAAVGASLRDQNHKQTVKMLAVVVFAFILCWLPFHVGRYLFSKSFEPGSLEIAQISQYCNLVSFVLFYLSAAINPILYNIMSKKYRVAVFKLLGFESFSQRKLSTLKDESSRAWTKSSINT
Chain of Growth hormone secretagogue receptor type 1 (Rattus norvegicus) (O08725 whole entry): as above

SMILES | EC50 [2] [nM] | clearance [3] [mL/min/kg] | Tmax [5] [min] | EC50 [10] [nM] | half-life [14] [min] | EC50 [15] [nM] | Activity [18] [%] | Vd [23] [L/kg] | EC50 [27] [nM] | Cmax [28] [ng/mL] | Activity (CHO [1]; filed as agonist) [%] | Activity (CHO [19]) [%] | Activity (CHO [20]) [%] | further results
CC(C)(N)C(=O)N[C@H](COCc1ccccc1)C(=O)N1CCC2=NN(C3COC3)C(=O)[C@]2(Cc2ccccc2)C1 | 14.7 | – | – | – | – | – | – | – | – | – | 99.2 | – | – | –
CC(C)(N)C(=O)N[C@H](COCc1ccccc1)C(=O)N1CCC2=NN(C(F)F)C(=O)[C@]2(Cc2ccccc2)C1 | > 1000 | – | – | – | – | – | – | – | – | – | – | – | – | Activity (CHO [1]): 11%
Cn1nc2c(c1-c1ccccc1)CCN(C(=O)[C@@H](COCc1ccccc1)NC(=O)C(C)(C)N)C2 | > 1000 | – | – | – | – | – | – | – | – | – | – | – | – | Activity (CHO [1]): 18.2%
CC(C)(N)C(=O)N[C@H](COCc1ccccc1)C(=O)N1CC(C)(C)C2=NNC(=O)[C@]2(Cc2ccccc2)C1 | 53.3 | – | – | – | – | – | – | – | – | – | – | – | – | Activity (CHO [1]): 25.4%
CC(C)(N)C(=O)N[C@H](COCc1ccccc1)C(=O)N1C2CCC1[C@@]1(Cc3ccccc3)C(=O)NN=C1C2 (stereo partly drawn) | 447 | – | – | – | – | – | – | – | – | – | 41.7 | – | – | –
Cn1nc2c(c1-c1ccccc1)CN(C(=O)[C@@H](COCc1ccccc1)NC(=O)C(C)(C)N)CC2 | 72.4 | – | – | – | – | – | – | – | – | – | 72 | – | – | –

These reach a lower EC50 [2]. Values come first.

EC50 [2] [nM] | clearance [3] [mL/min/kg] | Tmax [5] [min] | EC50 [10] [nM] | half-life [14] [min] | EC50 [15] [nM] | Activity [18] [%] | Vd [23] [L/kg] | EC50 [27] [nM] | Cmax [28] [ng/mL] | SMILES | Activity (CHO [1]; filed as agonist) [%] | Activity (CHO [19]) [%] | Activity (CHO [20]) [%] | further results
0.8 | 48 | 15 | 0.021 | 48 | 0.092 | 114 | 3.3 | 0.068 | 139 | CC(C)(N)C(=O)N[C@H](COCc1ccccc1)C(=O)N1CCC2=NN(C3CC3)C(=O)[C@]2(Cc2ccccn2)C1 | 123 | 87.4 | 104 | Activity (Rattus norvegicus [4]): 220.5 ng/mL; bioavailability [6]: 26.2%; Activity (Rattus norvegicus [7]): 168.5 ng/mL; Activity (Rattus norvegicus [8]): 41.9 ng/mL; Activity (Rattus norvegicus [9]): 65.8 ng/mL; Activity (Rattus norvegicus [11]): 178.4 ng/mL; Activity (Rattus norvegicus [12]): 17.2 ng/mL; half-life [13]: 72.6 min; Activity (Rattus norvegicus [16]): 81.8 ng/mL; AUC (Rattus norvegicus [17]): 104 ng·h/mL; AUC (Rattus norvegicus [21]): 58.6 ng·h/mL; AUC at 4 h [22]: 186 ng·h/mL; Activity (Rattus norvegicus [24]): 54.5 ng/mL; Activity (Rattus norvegicus [25]): 91.8 ng/mL; Activity (Rattus norvegicus [26]): 61.1 ng/mL; Activity (Rattus norvegicus [29]): 34.5 ng/mL
1.37 | – | – | 0.017 | – | 0.118 | 111 | – | 0.074 | – | CN1N=C2CCN(C(=O)[C@@H](COCc3ccccc3)NC(=O)C(C)(C)N)C[C@@]2(Cc2ccccc2)C1=O [CAPROMORELIN] | 119 | 155 | 109 | –
1.19 | 50.5 | 30 | 0.014 | 48 | 0.048 | 104 | 3.5 | 0.02 | 8.4 | CC(C)(N)C(=O)N[C@H](COCc1ccccc1)C(=O)N1CCC2=NN(C3CCC3)C(=O)[C@]2(Cc2ccccc2)C1 | 107 | 125 | 104 | bioavailability [6]: 3.3%; half-life [13]: 109 min; AUC at 4 h [22]: 21.1 ng·h/mL
0.58 | 70.9 | 19.8 | 0.012 | 178 | 0.077 | 96 | 16.1 | 0.062 | 219 | CC(C)(N)C(=O)N[C@H](COCc1ccccc1)C(=O)N1CCC2=NN(C(F)(F)F)C(=O)[C@]2(Cc2ccccc2)C1 | 106 | 115 | 103 | bioavailability [6]: 44.8%; half-life [13]: 72 min; AUC at 4 h [22]: 214 ng·h/mL
0.87 | 169 | 15 | – | 86.4 | – | – | 22.8 | – | 54 | CC(C)(N)C(=O)N[C@H](COCc1ccccc1)C(=O)N1CCC2=NOC(=O)[C@]2(Cc2ccccc2)C1 | 106 | – | – | –
